Each structure is given as a SMILES string. Converted amounts (≈) assume the structure as drawn.

Assay [1] has as its system XDR strain of Mycobacterium tuberculosis. Nature of the assay: microbe, parasite or virus in culture. It counts as cell-based. The note with it: read-out: Anti-tubercular activity against Mycobacterium tuberculosis (μg/mL) XDR (MIC).
For assay [2], the system named is MDR strain of Mycobacterium tuberculosis. The assay is described as follows: microbe, parasite or virus in culture. In kind it is cell-based. Particulars: read-out: Anti-tubercular activity against Mycobacterium tuberculosis (μg/mL) MDR (MIC).

Turning to `Cc1nc(-c2ccc(OCC(C)C)c(C#N)c2)sc1C(=O)N/N=C/c1ccc(F)c(Oc2ccccc2)c1` [KNV-TZL1, (E)-2-(3-Cyano-4-isobutoxyphenyl)-N-(4-fluoro-3-phenoxybenzylidene)-4-methylthiazole-5-carbohydrazide], the MIC amounted to 128 µg/mL (≈ 242 µM) in assay [1] and 32 µg/mL (≈ 60.5 µM) in assay [2].

As for `COc1cc(/C=N/NC(=O)c2sc(-c3ccc(OCC(C)C)c(C#N)c3)nc2C)ccc1O` [KNV-TZL2, (E)-2-(3-Cyano-4-isobutoxyphenyl)-N-(4-hydroxy-3-methoxybenzylidene)-4-methylthiazole-5-carbohydrazide], the MIC in assay [1] and in assay [2] was 64 µg/mL (≈ 138 µM) throughout.

Values taken from US12145915B1 (priority 2023, dated 2024).
